Test results reported in patent US20100249071A1, “Modulators of S1P and Methods of Making And Using” (Exelixis, Inc., priority 2009, published 2010).
Read-outs that look alike come from different tables or passages of the source.

Key:
circulating lymphocytes = test: Lymphocyte PD assay in rats; assay type: in vivo, rat; conditions: 24 hours after oral single dose at 3 mg/kg, Female CD rats (Sprague Dawley), compared to vehicle-only group
Method: Suppression of circulating lymphocytes was assessed as a PD endpoint in jugular vein canulated Sprague Dawely (SD) rats 6-8 weeks of age and weighing approximately 200 g (Taconic Farms, Germantown, N.Y.). Prior initiating a study, rats were acclimated to the vivarium facility (12 h light cycle, 12 h dark cycle) for a minimum of 2 days. During a study, animals were provided food and water ad libitum and housed in a room conditioned at 70-75° F. and 60% relative humidity. All animals were examined daily for health assessment.
The Compound of the Invention were formulated and animals was dosed at a volume of 4 mL/kg. At indicated timepoints, whole blood was collected via jugular vein canulas into EDTA-coated tubes and hematology analysis was performed on an Abbott Cell-Dyn 3700 hematology analyzer. Readouts included white blood cells (total, differential, and % of total), neutrophils, lymphocytes, monocytes, eosinophils, basophils, RBC, HGB, hematocrit, mean corpuscule volume, mean corpuscule HGB concentration, RBC distribution width, platelets, and mean platelet volume.

[1] = molecular target: T1, hS1PR5 (hEdg8) membrane protein (Homo sapiens, UniProt Q9H228); test: hS1P5R GTPγS binding assay (Assay 4); assay type: biochemical
T1 construct: expressed in transfected cells; host or cells: CHO
Method in brief: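 Membranes (5 μg) from CHO cells expressing hS1PR5, incubated 1 h at room temperature with 30 μM GDP, 0.1 nM [35S]GTPγS, 0.25% fatty acid free BSA and serially diluted compound in pH 7.9 Tris buffer with MgCl2. WGA SPA beads added for another 1 h, then bound [35S]GTPγS counted by scintillation.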

[2] = molecular target: T2, hS1P1R (hEdg1) membrane protein (Homo sapiens, UniProt P21453); test: hS1P1R GTPγS binding assay (Assay 3a); assay type: biochemical
T2 construct: purchased Lonza
Method in brief: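 Membranes (4 μg) expressing hS1P1R incubated 1 h at room temperature with 30 μM GDP, 0.1 nM [^35S]GTPγS, 0.25% fatty acid free BSA and serially diluted agonist in Tris-HCl pH 7.9/NaCl/MgCl2/EGTA buffer. Bound [^35S]GTPγS captured on WGA SPA beads (further 1 h) and counted.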

S1P3 = molecular target: T3, S1P3 (Homo sapiens, UniProt Q99500); test: S1P3 Tango β-arrestin recruitment assay in HEK293 cells (Assay 5); assay type: cell-based; conditions: read-out: Assay 5 EC50
T3 construct: host or cells: HEK293 (transient transfection)
Method in brief: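 HEK293 cells transiently expressing S1P3 fused via TEV-cleavable linker to tTA, with β-arrestin2–TEV, treated 16-18 h at 37 °C with compounds (top 10 μM, 10-point 3-fold, 1% DMSO). Luciferase reporter luminescence normalised to DMSO background and 5 μM S1P control as percent activity; EC50 from concentration-response curves.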

S1P1 = molecular target: T4, S1P1 (Homo sapiens, UniProt P21453); test: Tango β-arrestin recruitment assay in U2OS cells (Assay 2b); assay type: cell-based
T4 construct: host or cells: U2OS
Method in brief: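 In this agonist-mode Tango assay, U2OS cells carrying S1P1 and the reporter were serum-starved 48 h, then exposed overnight at 37 °C to compound (10 points, 3-fold, top 1 μM, 1% DMSO). β-Lactamase F460/F530 ratio was normalized to 1 μM S1P, and EC50 was fitted.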

T2 sequence (P21453 whole entry): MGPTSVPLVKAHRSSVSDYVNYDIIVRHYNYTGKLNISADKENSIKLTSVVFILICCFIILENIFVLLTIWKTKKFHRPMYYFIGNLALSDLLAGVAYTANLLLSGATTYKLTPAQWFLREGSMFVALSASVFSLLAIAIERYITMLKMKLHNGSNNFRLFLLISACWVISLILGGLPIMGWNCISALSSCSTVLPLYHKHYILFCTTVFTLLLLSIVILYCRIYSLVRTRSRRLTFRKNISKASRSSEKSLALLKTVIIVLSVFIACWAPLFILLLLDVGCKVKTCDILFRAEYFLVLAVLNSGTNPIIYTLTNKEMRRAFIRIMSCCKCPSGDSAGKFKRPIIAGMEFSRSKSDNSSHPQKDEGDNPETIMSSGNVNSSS
T4 sequence (P32121 whole entry): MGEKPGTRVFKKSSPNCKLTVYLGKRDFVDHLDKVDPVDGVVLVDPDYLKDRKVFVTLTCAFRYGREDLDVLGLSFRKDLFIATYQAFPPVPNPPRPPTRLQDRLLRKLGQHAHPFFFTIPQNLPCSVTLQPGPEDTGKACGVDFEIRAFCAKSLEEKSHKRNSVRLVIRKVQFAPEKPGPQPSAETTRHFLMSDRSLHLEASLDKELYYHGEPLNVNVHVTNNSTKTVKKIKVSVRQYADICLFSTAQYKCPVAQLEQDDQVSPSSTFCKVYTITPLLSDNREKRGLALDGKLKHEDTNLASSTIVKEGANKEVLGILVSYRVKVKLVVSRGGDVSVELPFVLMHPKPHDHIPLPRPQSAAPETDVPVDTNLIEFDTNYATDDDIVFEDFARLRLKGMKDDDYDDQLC
T4 sequence (P21453 whole entry): as the sequence (P21453 whole entry) above
T3 sequence (P32121 whole entry): as the sequence (P32121 whole entry) above
T3 sequence (Q99500 whole entry): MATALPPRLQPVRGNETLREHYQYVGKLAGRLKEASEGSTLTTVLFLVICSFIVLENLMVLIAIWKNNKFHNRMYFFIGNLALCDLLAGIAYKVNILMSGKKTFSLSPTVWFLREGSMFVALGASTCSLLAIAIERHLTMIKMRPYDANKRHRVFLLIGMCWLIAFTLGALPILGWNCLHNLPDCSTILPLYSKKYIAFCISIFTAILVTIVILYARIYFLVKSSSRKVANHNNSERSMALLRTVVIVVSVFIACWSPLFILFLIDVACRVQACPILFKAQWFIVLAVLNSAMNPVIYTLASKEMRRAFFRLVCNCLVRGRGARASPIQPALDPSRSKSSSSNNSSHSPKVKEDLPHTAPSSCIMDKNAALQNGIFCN
T1 sequence (Q9H228 whole entry): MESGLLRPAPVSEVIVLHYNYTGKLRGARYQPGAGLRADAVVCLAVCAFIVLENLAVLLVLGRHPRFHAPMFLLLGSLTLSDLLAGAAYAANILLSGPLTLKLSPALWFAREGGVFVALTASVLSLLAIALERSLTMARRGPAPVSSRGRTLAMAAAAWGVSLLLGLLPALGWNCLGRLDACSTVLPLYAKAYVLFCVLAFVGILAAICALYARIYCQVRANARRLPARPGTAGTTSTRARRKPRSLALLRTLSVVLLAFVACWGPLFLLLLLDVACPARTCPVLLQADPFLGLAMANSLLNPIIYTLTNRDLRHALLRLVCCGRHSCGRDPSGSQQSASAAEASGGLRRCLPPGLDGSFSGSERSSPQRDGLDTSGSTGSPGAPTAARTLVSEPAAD

| EC50 [1] [nM] | EC50 [2] [nM] | EC50 (S1P3) [nM] | EC50 (S1P1; read-out: Assay 2b EC50) [nM] | EC50 (S1P1; * = rEC50 measured rather than EC50, read-out: Assay 2b rEC50 (relative EC50, cells marked *)) [nM] | Compound | Lymphocyte Counts (p < 0.05) (circulating lymphocytes) [%] |
| --- | --- | --- | --- | --- | --- | --- |
| 50 to 250 | 10 to 50 | > 10000 | ≤ 10 | – | CC(C)Oc1ccc(-c2nnc(-c3cc(F)c(OC[C@H](N)[C@H](C)O)cc3Cl)s2)cc1Cl [Entry 72, (2S,3S)-3-amino-4-{[5-chloro-4-(5-{3-chloro-4-[(1-methylethyl)oxy]phenyl}-1,3,4-thiadiazol-2-yl)-2-fluorophenyl]oxy}butan-2-ol] | −86 |
| 10 to 50 | ≤ 10 | > 10000 | ≤ 10 | – | CC(C)Oc1ccc(-c2nnc(-c3cc(F)c(OC[C@H](N)[C@@H](C)O)cc3Cl)s2)cc1Cl [Entry 73, (2R,3S)-3-amino-4-{[5-chloro-4-(5-{3-chloro-4-[(1-methylethyl)oxy]phenyl}-1,3,4-thiadiazol-2-yl)-2-fluorophenyl]oxy}butan-2-ol] | −89 |
| 250 to 2800 | 250 to 2800 | > 10000 | ≤ 10 | – | CC(C)Nc1ccc(-c2nnc(-c3cc(F)c(OC[C@@H](N)CO)cc3Cl)s2)cn1 [Entry 77, (2S)-2-amino-3-{[5-chloro-2-fluoro-4-(5-{6-[(1-methylethyl)amino]pyridin-3-yl}-1,3,4-thiadiazol-2-yl)phenyl]oxy}propan-1-ol] | −94 |
| 50 to 250 | ≤ 10 | > 250 | ≤ 10 | – | Cc1cc(-c2nnc(-c3cc(F)c(OC[C@@H](N)[C@@H](C)O)cc3Cl)s2)cc(NC(C)C)n1 [Entry 97, (2R,3R)-3-amino-4-{[5-chloro-2-fluoro-4-(5-{2-methyl-6-[(1-methylethyl)amino]pyridin-4-yl}-1,3,4-thiadiazol-2-yl)phenyl]oxy}butan-2-ol] | – |
| 50 to 250 | ≤ 10 | ≤ 250 | ≤ 10 | – | Cc1cc(-c2nnc(-c3cc(F)c(OC[C@@H](N)[C@H](C)O)cc3Cl)s2)cc(NC(C)C)n1 [Entry 98, (2S,3R)-3-amino-4-{[5-chloro-2-fluoro-4-(5-{2-methyl-6-[(1-methylethyl)amino]pyridin-4-yl}-1,3,4-thiadiazol-2-yl)phenyl]oxy}butan-2-ol] | – |
| 10 to 50 | 10 to 50 | > 250 | 10 to 50 | – | Cc1nc(-c2nnc(-c3cc(F)c(OC[C@H](N)[C@@H](C)O)cc3Cl)s2)ccc1NC(C)C [Entry 103, (2R,3S)-3-amino-4-{[5-chloro-2-fluoro-4-(5-{6-methyl-5-[(1-methylethyl)amino]pyridin-2-yl}-1,3,4-thiadiazol-2-yl)phenyl]oxy}butan-2-ol] | – |

Continued, compound first:

| Compound | EC50 [1] [nM] | EC50 [2] [nM] | EC50 (S1P3) [nM] | EC50 (S1P1; read-out: Assay 2b EC50) [nM] | EC50 (S1P1; * = rEC50 measured rather than EC50, read-out: Assay 2b rEC50 (relative EC50, cells marked *)) [nM] | Lymphocyte Counts (p < 0.05) (circulating lymphocytes) [%] |
| --- | --- | --- | --- | --- | --- | --- |
| CC(C)Oc1ccc(-c2nnc(-c3cc(F)c(OC[C@H](N)CO)cc3Cl)s2)cc1Cl [Entry 1, (2R)-2-amino-3-{[5-chloro-4-(5-{3-chloro-4-[(1-methylethyl)oxy]phenyl}-1,3,4-thiadiazol-2-yl)-2-fluorophenyl]oxy}propan-1-ol] | 10 to 50 | 10 to 50 | > 10000 | 10 to 50 | – | −80 |
| CC(C)Oc1ccc(-c2nnc(-c3cc(F)c(OC[C@H](N)CO)cc3Cl)s2)cc1Br [Entry 2, (2R)-2-amino-3-{[4-(5-{3-bromo-4-[(1-methylethyl)oxy]phenyl}-1,3,4-thiadiazol-2-yl)-5-chloro-2-fluorophenyl]oxy}propan-1-ol] | 10 to 50 | ≤ 10 | > 10000 | 10 to 50 | – | −93 |
| CC(C)Oc1ccc(-c2nnc(-c3cc(F)c(OC[C@H](N)CO)cc3Cl)s2)cc1C#N [Entry 37, 5-[5-(4-{[(2R)-2-amino-3-hydroxypropyl]oxy}-2-chloro-5-fluorophenyl)-1,3,4-thiadiazol-2-yl]-2-[(1-methylethyl)oxy]benzonitrile] | 10 to 50 | ≤ 10 | > 10000 | ≤ 10 | – | −93 |
| CC(C)Nc1ccc(-c2nnc(-c3cc(F)c(OCC(N)CO)cc3Cl)s2)cn1 (stereo not shown) [Entry 44, 2-amino-3-{[5-chloro-2-fluoro-4-(5-{6-[(1-methylethyl)amino]pyridin-3-yl}-1,3,4-thiadiazol-2-yl)phenyl]oxy}propan-1-ol] | 250 to 2800 | 250 to 2800 | > 10000 | ≤ 10 | – | −94 |
| Cc1cc(-c2nnc(-c3cc(F)c(OC[C@H](N)[C@@H](C)O)cc3Cl)s2)cc(NC(C)C)n1 [Entry 62, (2R,3S)-3-amino-4-{[5-chloro-2-fluoro-4-(5-{2-methyl-6-[(1-methylethyl)amino]pyridin-4-yl}-1,3,4-thiadiazol-2-yl)phenyl]oxy}butan-2-ol] | 10 to 50 | ≤ 10 | > 10000 | ≤ 10 | – | −79 |
| (1R,2R)-2-amino-3-{[5-chloro-2-fluoro- 4-(5-{6-[(1-methylethyl)amino]pyridin- 3-yl}-1,3,4-thiadiazol-2-yl)phenyl]oxy}- 1-methylpropyl dihydrogen phosphate [Entry 102] | ≤ 10 | ≤ 10 | ≤ 250 | – | ≤ 10 | – |
| (1R,2S)-2-amino-3-{[5-chloro-2-fluoro- 4-(5-{3-methyl-4-[(1- methylethyl)oxy]phenyl}-1,3,4- thiadiazol-2-yl)phenyl]oxy}-1- methylpropyl dihydrogen phosphate [Entry 99] | 10 to 50 | ≤ 10 | ≤ 250 | ≤ 10 | – | – |
| (1S,2R)-2-amino-3-{[5-chloro-2-fluoro- 4-(5-{2-methyl-6-[(1- methylethyl)amino]pyridin-4-yl}-1,3,4- thiadiazol-2-yl)phenyl]oxy}-1- methylpropyl dihydrogen phosphate [Entry 101] | ≤ 10 | ≤ 10 | > 250 | ≤ 10 | – | – |
